Source: US10842868B2 (priority 2012, dated 2020)

How the values were obtained:
DT, TT, PT, FHA and 69K = format: physicochemical
[1] = format: physicochemical; conditions: K2 10, 50, 250 or 500 μg/ml; Al—H 3 mg/ml; all strengths
Experimental: Compound K2 is added to water at 4mg/ml, then 1M NaOH is added to ensure full solubilisation, with stirring for 15 minutes at room temperature. This material is added to a suspension of aluminium hydroxide adjuvant (Al—H) to give the desired final concentration. This mixture is shaken for 2 hours at ambient temperature to ensure full adsorption, and then histidine buffer components are added (10mM histidine buffer, pH 6.5).
Four different mixtures are prepared, giving a final K2 concentration of 10, 50, 250 or 500 μg/ml (to provide a 1, 5, 25 or 50 μg dose of K2 in a 100 μl dosage volume); the Al—H concentration is always 3 mg/ml. At all strengths >95% of compound K2 is adsorbed to the Al—H. The adsorbed adjuvant is referred to hereafter as “Al—H/K2”.

In the case of `Cc1cc(OCCOCCOCCP(=O)(O)O)ccc1CCc1cnc2c(N)nc3cc(CCC(=O)O)ccc3c2c1` [K2, 3-(5-amino-2-(2-methyl-4-(2-(2-(2-phosphonoethoxy)ethoxy)ethoxy)phenethyl)benzo [f]-[1,7]naphthyridin-8-yl)propanoic acid], the “adsorption of all antigens” value (DT, TT, PT, FHA and 69K) is reported as “completely adsorbed” and the “compound K2 adsorbed to the Al—H” value [1] is reported as over 95%.
